Four molecules from the kinase profiling compilation of Christmann-Franck et al. (2016) can be followed below.

Holding throughout (assay): KINOMEscan competition binding
Common to all, as to settings: compound 10.0 µM

The target in assay [1] is AAK1 (human) (UniProt Q2M2I8).
In assay [2] the target is ACVR2B (human) (UniProt Q13705).
The target of assay [3] is AKT2 (human) (UniProt P31751).
Assay [4] concerns the target CAMK1D (human) (UniProt Q8IU85).
Assay [5] concerns the target CDK14 (human) (UniProt O94921).
In assay [6] the target is CDK16 (human) (UniProt Q00536).
The target in assay [7] is CDK18 (human) (UniProt Q07002).
Assay [8] deals with CDK2 (human) (UniProt P24941).
For assay [9], the target named is CLK1 (human) (UniProt P49759).
Assay [10] addresses CLK4 (human) (UniProt Q9HAZ1).
In assay [11] the target is CSNK2A2 (human) (UniProt P19784).
Assay [12] deals with DAPK2 (human) (UniProt Q9UIK4).
Assay [13] addresses DAPK3 (human) (UniProt O43293).
Assay [14] concerns the target DCLK2 (human) (UniProt Q8N568).
Assay [15] deals with DYRK1B (human) (UniProt Q9Y463).
Assay [16] deals with EGFR (human), P00533 [747-751 del / S ins].
Assay [17] relates to EGFR (human), P00533 [G719C; 746-750 del].
The subject of assay [18] is EIF2AK4 KD2 (human), Q9P2K8 [S808G].
In assay [19] the target is EPHA7 (human) (UniProt Q15375).
Assay [20] relates to KIT (human), P10721 [V559D/V654A].
Assay [21] has as its target LATS2 (human) (UniProt Q9NRM7).
The target in assay [22] is LYN (human) (UniProt P07948).
Assay [23] concerns the target MAP2K4 (human) (UniProt P45985).
The target of assay [24] is MAP3K5 (human) (UniProt Q99683).
For assay [25], the target named is MELK (human) (UniProt Q14680).
Assay [26] deals with MET (human) (UniProt P08581).
In assay [27] the target is NLK (human) (UniProt Q9UBE8).
For assay [28], the system named is PIK3CA (human), P42336 [E545K].
Assay [29] addresses PIM3 (human) (UniProt Q86V86).
Assay [30] concerns the target PRKCH (human) (UniProt P24723).
Assay [31] concerns the target PRKCQ (human) (UniProt Q04759).
The target in assay [32] is RAF1 (human) (UniProt P04049).
Assay [33] concerns the target RPS6KA1 KD1 (human) (UniProt Q15418).
The target of assay [34] is SGK110 (human) (UniProt P0C264).
The target in assay [35] is SIK2 (human) (UniProt Q9H0K1).
Assay [36] concerns the target STK16 (human) (UniProt O75716).
Assay [37] deals with TAOK1 (human) (UniProt Q7L7X3).
In assay [38] the target is TEC (human) (UniProt P42680).
Assay [39] addresses TEK (human) (UniProt Q02763).
Assay [40] deals with TLK1 (human) (UniProt Q9UKI8).
In assay [41] the target is TNIK (human) (UniProt Q9UKE5).
In assay [42] the target is ULK3 (human) (UniProt Q6PHR2).

DAPK2 (human), sequence (Q9UIK4 whole entry, looked up): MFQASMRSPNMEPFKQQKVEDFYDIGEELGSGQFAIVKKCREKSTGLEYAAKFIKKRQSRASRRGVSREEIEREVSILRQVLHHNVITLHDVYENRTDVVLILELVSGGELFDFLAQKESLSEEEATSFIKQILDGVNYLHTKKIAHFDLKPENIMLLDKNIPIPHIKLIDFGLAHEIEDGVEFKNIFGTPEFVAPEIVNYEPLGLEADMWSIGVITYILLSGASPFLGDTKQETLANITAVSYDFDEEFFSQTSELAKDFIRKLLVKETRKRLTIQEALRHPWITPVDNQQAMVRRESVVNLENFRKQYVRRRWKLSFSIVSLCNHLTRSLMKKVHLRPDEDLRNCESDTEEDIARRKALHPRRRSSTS
DYRK1B (human), sequence (Q9Y463 whole entry, looked up): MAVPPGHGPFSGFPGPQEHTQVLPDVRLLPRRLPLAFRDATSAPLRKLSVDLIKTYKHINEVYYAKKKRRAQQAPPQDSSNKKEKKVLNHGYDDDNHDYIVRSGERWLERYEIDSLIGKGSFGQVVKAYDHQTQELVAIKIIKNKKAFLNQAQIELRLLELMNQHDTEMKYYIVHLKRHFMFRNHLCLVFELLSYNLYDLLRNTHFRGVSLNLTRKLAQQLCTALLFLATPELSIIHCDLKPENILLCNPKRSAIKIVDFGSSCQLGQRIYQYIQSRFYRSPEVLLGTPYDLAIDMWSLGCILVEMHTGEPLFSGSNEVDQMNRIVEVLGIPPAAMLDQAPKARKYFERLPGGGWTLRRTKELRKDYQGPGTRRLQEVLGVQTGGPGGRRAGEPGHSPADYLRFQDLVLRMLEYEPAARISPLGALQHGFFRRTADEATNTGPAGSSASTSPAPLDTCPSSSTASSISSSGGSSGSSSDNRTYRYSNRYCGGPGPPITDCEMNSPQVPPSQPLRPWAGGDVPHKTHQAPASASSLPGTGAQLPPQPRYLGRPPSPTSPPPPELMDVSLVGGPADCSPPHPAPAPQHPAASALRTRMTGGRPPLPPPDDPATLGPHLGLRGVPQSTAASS
TAOK1 (human), sequence (Q7L7X3 whole entry, looked up): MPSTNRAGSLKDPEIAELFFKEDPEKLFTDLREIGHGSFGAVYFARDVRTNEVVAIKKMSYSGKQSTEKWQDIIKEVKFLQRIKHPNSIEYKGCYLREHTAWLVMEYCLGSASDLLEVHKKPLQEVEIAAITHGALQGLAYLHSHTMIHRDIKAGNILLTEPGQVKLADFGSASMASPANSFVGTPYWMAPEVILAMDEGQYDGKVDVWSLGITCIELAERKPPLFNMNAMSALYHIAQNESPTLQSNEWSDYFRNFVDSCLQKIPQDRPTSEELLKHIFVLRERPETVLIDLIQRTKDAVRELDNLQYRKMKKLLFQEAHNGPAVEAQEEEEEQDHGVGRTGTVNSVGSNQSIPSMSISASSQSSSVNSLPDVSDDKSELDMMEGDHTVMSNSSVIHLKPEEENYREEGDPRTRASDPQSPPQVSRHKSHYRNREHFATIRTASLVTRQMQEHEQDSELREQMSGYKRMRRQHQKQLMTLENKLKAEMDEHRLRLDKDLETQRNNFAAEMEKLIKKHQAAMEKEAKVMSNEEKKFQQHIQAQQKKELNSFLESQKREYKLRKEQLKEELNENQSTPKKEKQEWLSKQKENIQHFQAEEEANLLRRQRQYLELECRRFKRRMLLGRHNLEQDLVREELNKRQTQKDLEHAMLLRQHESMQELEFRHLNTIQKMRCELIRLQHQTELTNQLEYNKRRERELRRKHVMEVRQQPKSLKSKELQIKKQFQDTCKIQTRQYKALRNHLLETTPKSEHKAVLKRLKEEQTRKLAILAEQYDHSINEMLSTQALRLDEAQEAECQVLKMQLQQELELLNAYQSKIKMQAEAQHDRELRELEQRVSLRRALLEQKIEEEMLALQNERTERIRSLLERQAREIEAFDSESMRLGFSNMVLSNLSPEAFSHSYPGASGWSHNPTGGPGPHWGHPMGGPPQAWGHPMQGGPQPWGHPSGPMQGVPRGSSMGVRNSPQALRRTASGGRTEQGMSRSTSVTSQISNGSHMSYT
CLK4 (human), sequence (Q9HAZ1 whole entry, looked up): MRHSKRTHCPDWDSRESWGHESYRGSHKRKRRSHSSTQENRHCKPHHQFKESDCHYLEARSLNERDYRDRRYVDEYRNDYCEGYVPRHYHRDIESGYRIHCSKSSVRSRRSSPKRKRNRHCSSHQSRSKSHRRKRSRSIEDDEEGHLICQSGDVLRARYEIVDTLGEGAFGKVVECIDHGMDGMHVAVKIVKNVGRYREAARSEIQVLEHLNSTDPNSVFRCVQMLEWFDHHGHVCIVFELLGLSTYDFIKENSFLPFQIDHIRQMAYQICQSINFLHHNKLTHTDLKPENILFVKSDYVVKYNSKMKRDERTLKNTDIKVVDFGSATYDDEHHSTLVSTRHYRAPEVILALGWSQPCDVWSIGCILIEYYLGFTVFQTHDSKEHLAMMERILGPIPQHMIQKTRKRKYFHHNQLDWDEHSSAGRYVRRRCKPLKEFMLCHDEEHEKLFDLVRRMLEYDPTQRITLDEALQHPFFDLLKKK
CDK16 (human), sequence (Q00536 whole entry, looked up): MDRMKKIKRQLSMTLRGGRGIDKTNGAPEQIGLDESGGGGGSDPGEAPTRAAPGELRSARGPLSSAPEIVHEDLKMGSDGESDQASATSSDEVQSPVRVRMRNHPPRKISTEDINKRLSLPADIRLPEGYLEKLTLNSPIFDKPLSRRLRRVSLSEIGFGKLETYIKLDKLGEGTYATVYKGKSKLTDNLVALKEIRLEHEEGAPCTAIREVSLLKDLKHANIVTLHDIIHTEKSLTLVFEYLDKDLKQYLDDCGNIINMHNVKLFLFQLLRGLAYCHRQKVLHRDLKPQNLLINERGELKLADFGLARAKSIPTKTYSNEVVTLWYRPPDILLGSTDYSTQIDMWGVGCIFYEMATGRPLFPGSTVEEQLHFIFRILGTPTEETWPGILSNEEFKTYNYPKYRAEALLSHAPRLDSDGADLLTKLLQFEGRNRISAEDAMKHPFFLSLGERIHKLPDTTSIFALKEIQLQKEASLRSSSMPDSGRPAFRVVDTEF
ACVR2B (human), sequence (Q13705 whole entry, looked up): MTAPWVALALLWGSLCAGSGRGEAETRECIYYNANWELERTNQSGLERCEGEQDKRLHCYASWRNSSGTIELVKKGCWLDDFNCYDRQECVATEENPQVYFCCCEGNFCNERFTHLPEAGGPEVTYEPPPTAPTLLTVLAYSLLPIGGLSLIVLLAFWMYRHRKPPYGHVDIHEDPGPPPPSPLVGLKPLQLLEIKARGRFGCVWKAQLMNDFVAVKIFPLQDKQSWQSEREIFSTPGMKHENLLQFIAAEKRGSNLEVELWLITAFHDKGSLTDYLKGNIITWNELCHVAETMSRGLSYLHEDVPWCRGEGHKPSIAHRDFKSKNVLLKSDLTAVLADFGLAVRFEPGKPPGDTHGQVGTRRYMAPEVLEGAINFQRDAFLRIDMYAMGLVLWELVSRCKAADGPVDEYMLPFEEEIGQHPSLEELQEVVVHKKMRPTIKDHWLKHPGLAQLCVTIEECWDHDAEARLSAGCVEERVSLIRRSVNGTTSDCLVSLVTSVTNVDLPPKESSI
CDK14 (human), sequence (O94921 whole entry, looked up): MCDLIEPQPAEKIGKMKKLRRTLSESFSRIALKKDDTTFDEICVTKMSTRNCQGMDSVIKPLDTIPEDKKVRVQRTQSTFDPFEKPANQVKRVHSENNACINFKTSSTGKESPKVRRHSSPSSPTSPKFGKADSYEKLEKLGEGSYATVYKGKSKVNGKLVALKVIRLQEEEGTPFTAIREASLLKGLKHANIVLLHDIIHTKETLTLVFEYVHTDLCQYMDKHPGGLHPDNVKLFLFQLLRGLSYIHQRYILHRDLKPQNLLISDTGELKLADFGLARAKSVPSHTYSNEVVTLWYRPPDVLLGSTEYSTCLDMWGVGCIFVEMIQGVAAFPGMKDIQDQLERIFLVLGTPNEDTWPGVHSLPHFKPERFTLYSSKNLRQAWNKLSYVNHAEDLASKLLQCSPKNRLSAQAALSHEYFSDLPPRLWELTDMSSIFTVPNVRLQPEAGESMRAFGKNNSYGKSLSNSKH
AAK1 (human), sequence (Q2M2I8 whole entry, looked up): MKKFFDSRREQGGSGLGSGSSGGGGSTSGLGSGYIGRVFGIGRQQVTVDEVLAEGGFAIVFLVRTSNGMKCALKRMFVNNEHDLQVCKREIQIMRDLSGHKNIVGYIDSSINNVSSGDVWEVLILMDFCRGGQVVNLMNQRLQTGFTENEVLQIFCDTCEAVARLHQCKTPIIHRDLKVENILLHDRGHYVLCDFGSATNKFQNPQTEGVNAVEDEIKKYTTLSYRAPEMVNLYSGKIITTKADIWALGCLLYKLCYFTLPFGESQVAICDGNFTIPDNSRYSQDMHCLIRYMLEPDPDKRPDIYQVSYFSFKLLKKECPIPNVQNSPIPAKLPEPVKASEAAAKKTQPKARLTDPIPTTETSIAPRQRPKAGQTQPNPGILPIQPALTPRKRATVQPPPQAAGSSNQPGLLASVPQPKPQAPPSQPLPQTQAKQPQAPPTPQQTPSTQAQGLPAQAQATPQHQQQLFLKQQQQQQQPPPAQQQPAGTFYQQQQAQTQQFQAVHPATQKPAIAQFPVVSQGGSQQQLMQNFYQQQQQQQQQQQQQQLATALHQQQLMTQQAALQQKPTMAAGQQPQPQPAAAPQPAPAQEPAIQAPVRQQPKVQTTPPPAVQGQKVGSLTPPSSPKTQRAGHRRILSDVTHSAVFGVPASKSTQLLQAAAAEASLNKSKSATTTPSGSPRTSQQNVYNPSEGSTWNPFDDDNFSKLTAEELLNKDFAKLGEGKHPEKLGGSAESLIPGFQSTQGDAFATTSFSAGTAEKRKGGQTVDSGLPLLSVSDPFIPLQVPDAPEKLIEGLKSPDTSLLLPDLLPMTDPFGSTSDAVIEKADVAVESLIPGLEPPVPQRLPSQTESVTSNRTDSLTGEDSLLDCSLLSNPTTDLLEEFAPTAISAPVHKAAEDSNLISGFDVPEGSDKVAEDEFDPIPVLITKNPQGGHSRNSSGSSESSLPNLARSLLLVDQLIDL

As for `CN1CCN(c2ccc(C(=O)Nc3ncc4c(n3)N(C)c3ccccc3C(=O)N4C)cc2)CC1`, the kinase still bound, per cent of control in [1], in assay [2], in [3], in assay [4], in assay [5] and in assay [6] was 100% in each case. In addition, the kinase still bound, per cent of control stood at 100% in [7]; 98% in assay [8]; 100% in [9]; 100% in [10]; 78% in [11]; 100% in [12]. In addition, the kinase still bound, per cent of control in assay [13] came to 100%; in [14], 22%; in assay [15] it was 100%; in assay [16], 86%; in assay [17], 100%; in [18] it was 100%. The kinase still bound, per cent of control in assay [19] amounted to 100%; in assay [20] it was 100%; in assay [21] it was 100%; in assay [22], 94%; in [23], 86%; in assay [24] it was 94%. Besides, the kinase still bound, per cent of control in [25] worked out at 99%; in assay [26], 100%; in assay [27], 100%; in assay [28] it was 99%; in [29], 100%; in assay [30], 95%. Also, the kinase still bound, per cent of control amounted to 100% in [31]; 100% in [32]; 93% in assay [33]; 100% in [34]; 78% in [35]; 85% in assay [36]. Further, the kinase still bound, per cent of control in assay [37] is 75%; in assay [38] it was 93%; in [39] it was 100%; in assay [40] it was 86%; in [41] it was 100%; in [42] it was 100%.

With `N=C1NC(=O)/C(=C/c2ccc(-c3ccc(C(N)=O)cc3O)o2)S1`, the kinase still bound, per cent of control in assay [1] was found to be 15%; in assay [2] it was 22%; in assay [5], 18%; in assay [6], 0.65%; in assay [8], 19%; in assay [9], 0.55%. Further, the kinase still bound, per cent of control in assay [10] is 6.4%; in assay [11] it was 6.7%; in [12] it was 24%; in assay [13], 25%; in [15] it was 5.6%; in [18], 16%. In addition, the kinase still bound, per cent of control was 31% in [24], 5.4% in [29] and 2.2% in assay [37].

Take `N=C1NC(=O)/C(=C/c2ccc(-c3ccc(F)cc3O)o2)S1`: the kinase still bound, per cent of control was found to be 16% in [1]; 16% in assay [2]; 19% in [5]; 0.1% in [6]; 6.6% in [8]; 1.3% in assay [9]. Besides, the kinase still bound, per cent of control in assay [10] was 2.1%; in assay [11] it was 15%; in assay [12] it was 4.1%; in [13], 8.6%; in assay [15], 3.6%; in [16], 16%. Also, the kinase still bound, per cent of control was 14% in assay [24], 24% in assay [28], 4.7% in [29] and 0% in assay [37].

For `CN1C(=O)[C@H]2CCC[C@H]2N(C2CCCC2)c2nc(Nc3ccc(C(N)=O)cc3)ncc21`, the kinase still bound, per cent of control in assay [6] turned out to be 18%; in [9], 0.9%; in assay [10], 5.2%; in [12], 8.6%; in assay [13] it was 33%; in assay [14], 18%. Further, the kinase still bound, per cent of control came out at 2.8% in [15]; 4.1% in assay [20]; 31% in [23]; 27% in assay [25]; 4.5% in assay [26]; 16% in [27]. Moreover, the kinase still bound, per cent of control in assay [29] stood at 6.4%; in assay [33] it was 11%; in [34], 30%; in assay [36], 4.8%; in assay [37] it was 8.7%; in assay [40], 8.6%. In addition, the kinase still bound, per cent of control in assay [41] amounted to 13%.
